Literature values, collected in patent publication US20130096060A1, “GLP-1 AGONIST FOR USE IN THE TREATMENT OF STENOSIS OR/AND OBSTRUCTION IN THE PANCREATIC DUCT SYSTEM” (priority 2011, published 2013).

Assays:
[1] = tested on: acinar cells of the guinea pig pancreas; details: by interaction with exendin receptors (Raufman, 1996)
[2] = tested on: acinar cells of the pancreas; details: in contrast to exendin-4

Row | Substance | cellular cAMP production [1] | amylase release [2]
1 | exendin-3: peptide of the exendin group, able to lower blood glucose concentrations | stimulate an increase | produces an increase
2 | exendin-4: peptide of the exendin group, 39 AS, SEQ ID NO: 2, able to lower blood glucose concentrations | stimulate an increase | 
